Reference: article PMC8868518, “Exploring Titanium(IV) Complexes as Potential Antimicrobial Compounds” (Antibiotics, 2022)

Legend:
human red blood cells = assay: CO-ADD hemolysis assay; assay type: cell-based; conditions: all concentrations examined (0.25-32 μg/mL), 1 h; HC10 and HC50 could not be measured
Description: The compounds were used as received by the CO-ADD. For the screenings, most compounds were dissolved to a stock concentration of 10 mg/mL in DMSO. K2[Ti(Citrate)3], Na3Citrate, and K2[TiO(Oxalate)2] were dissolved in warm water. [Cu(Deferasirox)(H2O)]2 was dissolved in pyridine after its solubility was determined to be excellent in pyridine due to coordination of the solvent to the metal producing [Cu(Deferasirox)(pyridine)]2 in situ. […] Each sample concentration was prepared in 384-well plates, non-binding surface plate (NBS; Corning 3640) for each bacterial/fungal strain, tissue-culture treated (TC-treated; Corning 3712/3764), black for mammalian cell types and polypropylene 384-well (PP; […] All sample preparation was conducted using liquid handling robots. Human whole blood (Australian Red Cross) was washed three times with three volumes of 0.9% NaCl and resuspended in a concentration of 0.5 × 10^8 cells per mL, determined by manual cell count in a Neubauer hemocytometer. Washed cells were added to the compound-containing plates (384-well polypropylene plates (PP); Corning 3657) for a final volume of 50 μL, shaken and incubated for 1 h at 37 °C. […]

MRC-5 cells = conditions: cited from earlier work
[1] = pH 4; cited from earlier work

| SMILES | hemolysis of human red blood cells (in words) (human red blood cells) | IC50 ± SD (MRC-5 cells) [mg/L] | IC50 (MRC-5 cells; read-out: IC50 ± SD) [µM] | solution stability (in words) [1] |
| --- | --- | --- | --- | --- |
| O=C(O)c1ccc(-n2nc3nc2-c2ccccc2[O][Ti]2([O]c4ccccc4-3)[O]c3ccccc3-c3nc(n(-c4ccc(C(=O)O)cc4)n3)-c3ccccc3[O]2)cc1 [Compound 10, titanium(IV) bis(deferasirox)] | insignificant antiproliferative effect | 19.8 ± 0.8 | 25 ± 1 | highly stable in solution |
| [K+].[K+].c1ccc2cc3c(cc2c1)[O][Ti-2]12([O]3)([O]c3cc4ccccc4cc3[O]1)[O]c1cc3ccccc3cc1[O]2 [Compound 8, K2[Ti(Naphthalene-2,3-diolate)3]] | – | – | – | highly stable in solution |
| O=C([O-])C(=O)O.O=C([O-])C(=O)O.[K+].[K+].[O]=[Ti] [Compound 14, Potassium dioxalatoxotitanate(IV) dihydrate] | insignificant antiproliferative effect | – | – | – |
